Reference: PubChem BioAssay AID256 (DTP/NCI, 2004)
Values joined by “and” are separate entries in the source; they are usually repeats but may differ in a detail not shown here. Identical values can stand only once. Inconclusive results and toxic doses are left out. How the source made its calls: active means survival T/C of 150% or more; inactive means T/C below 125% in these data.

System: CD2F1 mice, L1210 leukemia ip, survival T/C
Assay: NCI In Vivo Anticancer Drug Screen. Data for tumor model L1210 Leukemia (intraperitoneal) in CD2F1 (CDF1) mice
Settings: higher = longer survival
In short: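 Each value reflects a quotient of treated over vehicle control outcomes in mice with a transplanted tumor.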

[1] = endpoint: mean survival time, dose: 100.0 mg/kg/injection, schedule: Q04DX003 (ip), vehicle: saline with Tween-80
[2] = endpoint: mean survival time, dose: 200.0 mg/kg/injection, schedule: Q04DX003 (ip), vehicle: saline with Tween-80
[3] = endpoint: mean survival time, dose: 400.0 mg/kg/injection, schedule: Q04DX003 (ip), vehicle: saline with Tween-80

Measured: T/C

Oc1ccccc1CNc1ccccc1
inactive: [1] 98 % of control | [2] 93 % of control | [3] 104 % of control

CN(C)CCCN=c1c2ccccc2n(C)c2[nH]c(=O)n(C)c(=O)c12
inactive: endpoint: median survival time, dose: 3.75 mg/kg/injection, schedule: Q01DX005 (ip), vehicle: saline 105 % of control | endpoint: median survival time, dose: 7.5 mg/kg/injection, schedule: Q01DX005 (ip), vehicle: saline 109 % of control | endpoint: median survival time, dose: 10.8 mg/kg/injection, schedule: Q01DX005 (ip), vehicle: saline 107 % of control | endpoint: median survival time, dose: 15.0 mg/kg/injection, schedule: Q01DX005 (ip), vehicle: saline 111 % of control and 112 % of control | endpoint: median survival time, dose: 18.0 mg/kg/injection, schedule: Q01DX005 (ip), vehicle: saline 123 % of control | endpoint: median survival time, dose: 30.0 mg/kg/injection, schedule: Q01DX005 (ip), vehicle: saline 116 % of control and 124 % of control | endpoint: median survival time, dose: 50.0 mg/kg/injection, schedule: Q01DX005 (ip), vehicle: saline 119 % of control | endpoint: median survival time, dose: 60.0 mg/kg/injection, schedule: Q01DX005 (ip), vehicle: saline 120 % of control and 101 % of control | endpoint: median survival time, dose: 120.0 mg/kg/injection, schedule: Q01DX005 (ip), vehicle: saline 119 % of control

O=C(Nc1c(Cl)cccc1Cl)OCCOc1ccccc1Cl
inactive: endpoint: mean survival time, dose: 50.0 mg/kg/injection, schedule: Q01DX009 (ip), vehicle: saline with Tween-80 98 % of control | endpoint: mean survival time, dose: 100.0 mg/kg/injection, schedule: Q01DX009 (ip), vehicle: saline with Tween-80 98 % of control | endpoint: mean survival time, dose: 200.0 mg/kg/injection, schedule: Q01DX009 (ip), vehicle: saline with Tween-80 98 % of control

CC1(C)N=C(N)N=C(N)N1c1ccc(C(=O)c2ccccc2)cc1
inactive: [1] 91 % of control

O=C1c2cccc(O)c2C(=O)c2cccc(O)c21
inactive: [1] 102 % of control | [2] 94 % of control | [3] 105 % of control

Nc1nc2c(c(=O)[nH]1)N1CCN(c3ccc(C(=O)NC(CCC(=O)O)C(=O)O)cc3)CC1CN2 (configuration not stated)
inactive: endpoint: mean survival time, dose: 100.0 mg/kg/injection, schedule: Q01DX001 (ip), vehicle: sodium bicarbonate 100 % of control | endpoint: mean survival time, dose: 200.0 mg/kg/injection, schedule: Q01DX001 (ip), vehicle: sodium bicarbonate 100 % of control | endpoint: mean survival time, dose: 400.0 mg/kg/injection, schedule: Q01DX001 (ip), vehicle: sodium bicarbonate 86 % of control
